Reference: ChEMBL document CHEMBL4052672, “Discovery of β-d-2'-deoxy-2'-dichlorouridine nucleotide prodrugs as potent inhibitors of hepatitis C virus replication” (Bioorg Med Chem Lett, 2017)
Calls of active or inactive are those of the source. The calls are words filed in the database; no cut-off is given here.

Assays:
[1] = Cytotoxic activity against human HuH7 cells incubated for 6 days by CCK8 assay; type: cell-based, Huh-7
Hepatitis C virus [2] = assay: Antiviral activity against HCV genotype 1b subgenomic replicon infected in human HuH7 Luc-neo cells assessed as inhibition of viral replication by luciferase reporter gene assay; type: functional, cell-based, Hepacivirus hominis; settings: Huh-7
[3] = Stability in human intestinal […] S9 fraction assessed as half life at 2 uM by LC-MS/MS method; type: ADME
[4] = Stability in human liver S9 fraction assessed as half life at 2 uM by LC-MS/MS method; type: ADME, tissue-based
[5] = Stability in human whole blood assessed as half life at 2 uM by LC-MS/MS method; type: ADME
[6] = test system: Hepatitis C virus subtype 1b; assay: (§1) Inhibition of HCV genotype 1b NS5B Cdelta21 RNA dependent RNA polymerase using cIRES, GTP, UTP and CTP incubated for 30 mins in presence of [3H]-ATP/ATP mixture by scintillation counting method
Hepatitis C virus [7] = assay: Antiviral activity against HCV genotype 5a subgenomic replicon infected in human Huh7-Lunet cells assessed as inhibition of viral replication by luciferase reporter gene assay; type: functional, cell-based, Hepacivirus hominis; settings: Huh-7
Hepatitis C virus [8] = assay: Antiviral activity against HCV genotype 1b subgenomic replicon; type: functional, Hepacivirus hominis
Hepatitis C virus [9] = assay: Antiviral activity against HCV genotype 1b subgenomic replicon expressing NS5B RNA dependent RNA polymerase S282T mutant infected in human HuH7 Luc-neo cells assessed as inhibition of viral replication by luciferase reporter gene assay relative to wild type HCV genotype 1b; type: functional, Hepacivirus hominis
Hepatitis C virus [10] = assay: Antiviral activity against HCV genotype 1a subgenomic replicon infected in human Huh7-Lunet cells assessed as inhibition of viral replication by luciferase reporter gene assay; type: functional, cell-based, Hepacivirus hominis; settings: subtype 1a, Huh-7
Hepatitis C virus [11] = assay: Antiviral activity against HCV genotype 2a subgenomic replicon; type: functional, Hepacivirus hominis
Hepatitis C virus [12] = assay: Antiviral activity against HCV genotype 3a subgenomic replicon infected in human Huh7-Lunet cells assessed as inhibition of viral replication by luciferase reporter gene assay; type: functional, cell-based, Hepacivirus hominis; settings: Huh-7
Hepatitis C virus [13] = assay: Antiviral activity against HCV genotype 4a subgenomic replicon infected in human Huh7-Lunet cells assessed as inhibition of viral replication by luciferase reporter gene assay; type: functional, cell-based, Hepacivirus hominis; settings: Huh-7
Hepatitis C virus [14] = assay: Antiviral activity against HCV genotype 6a subgenomic replicon infected in human Huh7-Lunet cells assessed as inhibition of viral replication by luciferase reporter gene assay; type: functional, cell-based, Hepacivirus hominis; settings: Huh-7
[15] = Drug metabolism in human hepatocytes assessed as ((2R,3R,4R,5R)-5-(2,4-dioxo-3,4-dihydropyrimidin-1(2H)-yl)-4-fluoro-3-hydroxy-4-methyltetrahydrofuran-2-yl)methyl tetrahydrogen triphosphate formation at 10 uM after 1 to 24 hrs by LC-MS/MS method; type: ADME, cell-based, Hepatocyte
[16] = Drug metabolism in human hepatocytes assessed as cytidine triphosphate metabolite formation at 10 uM after 1 to 24 hrs by LC-MS/MS method; type: ADME, cell-based, Hepatocyte
[17] = Inhibition of HCV genotype 1b NS5B RNA dependent RNA polymerase; design: species or system Hepatitis C virus subtype 1b
[18] = as §1; design: species or system Hepatitis C virus subtype 1b
[19] = Drug metabolism in human hepatocytes assessed as ((2R,3R,5R)-4,4-dichloro-5-(2,4-dioxo-3,4-dihydropyrimidin-1(2H)-yl)-3-hydroxytetrahydrofuran-2-yl)methyl tetrahydrogen triphosphate formation at 10 uM after 1 to 24 hrs by LC-MS/MS method; type: ADME, cell-based, Hepatocyte
[20] = Drug metabolism in human hepatocytes assessed as ((2R,3R,5R)-5-(4-amino-2-oxopyrimidin-1(2H)-yl)-4,4-dichloro-3-hydroxytetrahydrofuran-2-yl)methyl tetrahydrogen triphosphate formation at 10 uM after 1 to 24 hrs by LC-MS/MS method; type: ADME, cell-based, Hepatocyte
Canis familiaris [21] = assay: Drug metabolism in dog liver assessed as ((2R,3R,5R)-5-(4-amino-2-oxopyrimidin-1(2H)-yl)-4,4-dichloro-3-hydroxytetrahydrofuran-2-yl)methyl tetrahydrogen triphosphate formation at 50 mg/kg/day, po for 4 days; type: ADME, organism-based, Canis lupus familiaris; settings: in vivo, 96 h
Canis familiaris [22] = assay: Drug metabolism in dog liver assessed as ((2R,3R,5R)-5-(4-amino-2-oxopyrimidin-1(2H)-yl)-4,4-dichloro-3-hydroxytetrahydrofuran-2-yl)methyl tetrahydrogen triphosphate formation at 50 mg/kg/day, po for 4 days measured at 4 hrs on day 4; type: ADME, organism-based, Canis lupus familiaris; settings: in vivo
Canis familiaris [23] = assay: Drug metabolism in dog liver assessed as ((2R,3R,5R)-4,4-dichloro-5-(2,4-dioxo-3,4-dihydropyrimidin-1(2H)-yl)-3-hydroxytetrahydrofuran-2-yl)methyl tetrahydrogen triphosphate formation at 50 mg/kg/day, po for 4 days measured at 4 hrs on day 4; type: ADME, organism-based, Canis lupus familiaris; settings: in vivo

Structure (SMILES): CC[C@H](C)OC(=O)[C@H](C)NP(=O)(OC[C@H]1O[C@@H](n2ccc(=O)[nH]c2=O)C(Cl)(Cl)[C@@H]1O)Oc1ccccc1 (single isomer, unassigned)
- CC50 at 144 h [1]: > 100000 nM
- EC50 (Hepatitis C virus [2]): 83 nM
- half-life at 2 µM [3]: 140 min
- half-life at 2 µM [4]: 7 min
- half-life at 2 µM [5]: 11 min

Structure (SMILES): O=c1ccn([C@@H]2O[C@H](COP(=O)(O)OP(=O)(O)OP(=O)(O)O)[C@@H](O)C2(Cl)Cl)c(=O)[nH]1
- inhibition [6]: Active

Structure (SMILES): CC(C)OC(=O)[C@H](C)N[P@@](=O)(OC[C@H]1O[C@@H](n2ccc(=O)[nH]c2=O)[C@](C)(F)[C@@H]1O)Oc1ccccc1
- EC50 (Hepatitis C virus [7]): 120 nM
- EC50 (Hepatitis C virus [8]): 92 nM
- Ratio EC50 (Hepatitis C virus [9]): 7.8
- EC50 (Hepatitis C virus [10]): 170 nM
- EC50 (Hepatitis C virus [11]): 50 nM
- EC50 (Hepatitis C virus [12]): 130 nM
- EC50 (Hepatitis C virus [13]): 230 nM
- EC50 (Hepatitis C virus [14]): 180 nM
- Drug metabolism [15]: Metabolite_Detected
- Drug metabolism [16]: Metabolite_Detected

Structure (SMILES): C[C@@]1(F)[C@H](O)[C@@H](COP(=O)(O)OP(=O)(O)OP(=O)(O)O)O[C@H]1n1ccc(=O)[nH]c1=O [GS-461203]
- Ki [17]: 490 nM

Structure (SMILES): O=c1ccn([C@@H]2O[C@H](CO)[C@@H](O)C2(Cl)Cl)c(=O)[nH]1
- CC50 at 144 h [1]: > 100000 nM
- EC50 (Hepatitis C virus [2]): > 50000 nM

Structure (SMILES): O=c1ccn([C@@H]2O[C@H](COP(=O)(O)OP(=O)(O)OP(=O)(O)O)[C@@H](O)C2(F)F)c(=O)[nH]1
- IC50 [17]: > 100000 nM

Structure (SMILES): CC[C@@H](C)OC(=O)[C@H](C)NP(=O)(OC[C@H]1O[C@@H](n2ccc(=O)[nH]c2=O)C(Cl)(Cl)[C@@H]1O)Oc1ccccc1 (single isomer, unassigned)
- CC50 at 144 h [1]: > 100000 nM
- EC50 (Hepatitis C virus [2]): 110 nM
- half-life at 2 µM [3]: 140 min
- half-life at 2 µM [4]: 8 min
- half-life at 2 µM [5]: 11 min

Structure (SMILES): CC(C)OC(=O)[C@H](C)NP(=O)(OC[C@H]1O[C@@H](n2ccc(=O)[nH]c2=O)C(F)(F)[C@@H]1O)Oc1ccccc1 (single isomer, unassigned)
- EC50 (Hepatitis C virus [8]): 970 nM

Structure (SMILES): CC(C)OC(=O)[C@H](C)NP(=O)(OC[C@H]1O[C@@H](n2ccc(=O)[nH]c2=O)C(Cl)(Cl)[C@@H]1O)Oc1cccc(C2CCC2)c1 (single isomer, unassigned)
- CC50 at 144 h [1]: > 100000 nM
- EC50 (Hepatitis C virus [2]): 220 nM
- half-life at 2 µM [3]: 20 min
- half-life at 2 µM [4]: 3 min
- half-life at 2 µM [5]: 8 min

Structure (SMILES): C[C@H](NP(=O)(OC[C@H]1O[C@@H](n2ccc(=O)[nH]c2=O)C(Cl)(Cl)[C@@H]1O)Oc1ccccc1)C(=O)OC1CCCCC1 (single isomer, unassigned)
- CC50 at 144 h [1]: > 100000 nM
- EC50 (Hepatitis C virus [2]): 160 nM
- half-life at 2 µM [3]: 70 min
- half-life at 2 µM [4]: 3 min
- half-life at 2 µM [5]: 20 min

Structure (SMILES): CC(C)OC(=O)[C@H](C)NP(=O)(OC[C@H]1O[C@@H](n2ccc(=O)[nH]c2=O)C(Cl)(Cl)[C@@H]1O)Oc1cccc(C2(C)CC2)c1 (single isomer, unassigned)
- CC50 at 144 h [1]: > 100000 nM
- EC50 (Hepatitis C virus [2]): 230 nM
- half-life at 2 µM [3]: 20 min
- half-life at 2 µM [4]: 4 min
- half-life at 2 µM [5]: 12 min

Structure (SMILES): Nc1ccn([C@@H]2O[C@H](COP(=O)(O)OP(=O)(O)OP(=O)(O)O)[C@@H](O)C2(Cl)Cl)c(=O)n1
- Ki [18]: 200 nM

Structure (SMILES): CC(C)OC(=O)[C@H](C)NP(=O)(OC[C@H]1O[C@@H](n2ccc(=O)[nH]c2=O)C(Cl)(Cl)[C@@H]1O)Oc1ccc(C2(C)CC2)cc1 (single isomer, unassigned)
- CC50 at 144 h [1]: 62000 nM
- EC50 (Hepatitis C virus [2]): 340 nM
- half-life at 2 µM [3]: 60 min
- half-life at 2 µM [4]: 10 min
- half-life at 2 µM [5]: 8 min

Structure (SMILES): CC(C)OC(=O)[C@H](C)N[P@@](=O)(OC[C@H]1O[C@@H](n2ccc(=O)[nH]c2=O)C(Cl)(Cl)[C@@H]1O)Oc1ccccc1
- EC50 (Hepatitis C virus [7]): 53 nM
- CC50 at 144 h [1]: > 100000 nM
- EC50 (Hepatitis C virus [2]): 56 nM
- Ratio EC50 (Hepatitis C virus [9]): 4.1
- EC50 (Hepatitis C virus [10]): 70 nM
- EC50 (Hepatitis C virus [11]): 18 nM
- EC50 (Hepatitis C virus [12]): 68 nM
- EC50 (Hepatitis C virus [13]): 66 nM
- EC50 (Hepatitis C virus [14]): 69 nM
- half-life at 2 µM [3]: 1380 min
- half-life at 2 µM [4]: 43 min
- half-life at 2 µM [5]: 27 min
- Drug metabolism [19]: Metabolite_Detected
- Drug metabolism [20]: Metabolite_Detected
- Drug metabolism (Canis familiaris [21]): Metabolite_Detected
- Drug metabolism (Canis familiaris [22]): 0.93 µM
- Drug metabolism (Canis familiaris [23]): 3.5 µM
